Where two headings read alike, the source gives them in different places. Values belong to the compound of their own block, whether it stands above or below them.
Tests used:
[1] = test system: Two-spotted spider mites (eggs); assay: Ovicidal test on two-spotted spider mites (Test Example 2); format: in vivo, Tetranychus urticae; details: 500 ppm sprayed on kidney bean leaf; six days after the spraying
Method: A kidney bean leaf (about 3.5×4.5 cm) was placed on the sufficiently soaked non-woven fabric. Female adult two-spotted spider mites (about 5 mites) were released on the leaf, and the leaf was placed in a thermostatic chamber (25±2° C., 16L8D). […] The ovicidal rate of the two-spotted spider mites was determined six days after the spraying.

[2] = test system: Two-spotted spider mites; assay: whole plant or invertebrate; format: in vivo; details: Tetranychus urticae, in Phaseolus vulgaris, 48 h, read-out: mortality of the two-spotted spider mites, 500 ppm sprayed on kidney bean leaf; two days after the spraying
Method: A kidney bean leaf (about 3.5×4.5 cm) was placed on the sufficiently soaked non-woven fabric. Two-spotted spider mites (about twenty mites) were released on the leaf, and the leaf was placed in a thermostatic chamber (25±2° C., 16L8D). The next day, a miticidal formulation containing a compound of the invention (500 ppm) was prepared by adding an aqueous solution of Sorpol 355 (manufactured by Toho Kagagu Co., Ltd.) (100 ppm) to an acetone solution containing the compound of the invention. […] The mortality of the two-spotted spider mites was determined two days after the spraying.

[3] = test system: citrus rust mites; details: sprayed on Citrus aurantium leaf
Excerpt: A plastic cup (trade name: KP-120, manufactured by Konoike Plastic Co., Ltd., Iwata) was filled with tap water, and covered with a lid having a notch cut therein. A piece (4.5×5.5 cm) of non-woven fabric having a slit of about 4 cm in length, the slit being made parallel to the longer side of the fabric at a distance of 1 cm from the edge, was placed on the lid. The 4-cm long, 1-cm wide portion of the fabric was suspended inside the plastic cup through the notch. A Citrus aurantium leaf (3 cm×3 cm) was placed with the front side up on the sufficiently soaked non-woven fabric. To prevent drying and escape of mites, the leaf was covered with a filter paper (diameter: 5 cm, No. 2, Advantec Toyo Kaisha, Ltd.) having two holes of 10 mm in diameter. A leaf on which the citrus rust mites were bred was cut out into pieces with a cork borer (diameter: 2 mm), and the leaf pieces were placed with the front side up on the Citrus aurantium leaf on the non-woven fabric. The next day, the dry leaf pieces were removed. […] Subsequently, 4 ml of a miticidal formulation containing a test compound (100 ppm or 200 ppm), which was prepared according to Test Example 1, was sprayed over the leaf with a spray gun (PB-308 Piece Bon, Olympos, Osaka; 1 kgf/cm^2). […] The mortality of the citrus rust mites was determined two days after the spraying. […]

[4] = test system: female adult Kanzawa spider mites; assay: whole plant or invertebrate; format: in vivo; details: Tetranychus kanzawai, in Phaseolus vulgaris, 48 h, read-out: mortality of the female adult Kanzawa spider mites
Method: A kidney bean leaf (3.5 cm×4.5 cm) was placed with the rear side up on the sufficiently soaked non-woven fabric. Thereafter, 20 female adult Kanzawa spider mites were released on the kidney bean leaf on the cup. […] The mortality of the female adult Kanzawa spider mites was determined two days after the spraying.

[5] = test system: female adult citrus red mites; assay: whole plant or invertebrate; format: in vivo; details: Panonychus citri, in Citrus x aurantium, 48 h, read-out: mortality of the female adult citrus red mites
Method: Thereafter, 10 female adult citrus red mites were released on the Citrus aurantium leaf on the cup. The next day, a miticidal formulation containing a compound of the invention (100 ppm) was prepared by adding an aqueous solution of Sorpol 355 (manufactured by Toho Kagagu Co., Ltd.) to an acetone solution containing the compound of the invention. […] The mortality of the female adult citrus red mites was determined two days after the spraying.

Compound: FC(F)(F)CCCn1nc(OC2CCN(c3ccc(C(F)(F)F)cn3)CC2)cc1C(F)(F)F [1b-49]
ovicidal rate of the two-spotted spider mites [1]: 100%

melting point: 136.9 to 137.6 °C
Compound: C[C@@H]1CN(c2ccc(C(F)(F)F)cn2)CC[C@H]1Oc1cc(-c2cc(F)cc(F)c2)n[nH]1 (relative stereo) [1a-296, trans-4-[3-(3,5-difluorophenyl)pyrazol-5-yloxy]-3-methyl-1-[5-(trifluoromethyl)-2-pyridyl]-piperidine]

melting point: 133.8 to 134.5 °C
Compound: FC(F)(F)c1ccc(N2CCC(Oc3cc(C(F)(F)F)n[nH]3)CC2)nc1 [1a-245, 4-[3-(trifluoromethyl)pyrazol-5-yloxy]-1-[5-(trifluoromethyl)-2-pyridyl]-piperidine]

Compound: COC(Cn1nc(O[C@@H]2[C@@H]3CC[C@H]2CN(c2ccc(C(F)(F)F)cn2)C3)cc1C(F)(F)F)OC [1b-52, 8β-[1-(2,2-dimethoxy)ethyl-5-(trifluoromethyl)pyrazol-3-yloxy]-1-[5-(trifluoromethyl)-2-pyridyl]-3-azabicyclo[3.2.1]octane]
mortality at 500 ppm [2]: ≥ 50%

Compound: CC(C)(C)n1nc(C(F)(F)F)cc1OC1CCN(c2ccc(C(F)(F)F)cn2)CC1 [1a-26]
Insect mortality (%) ([3]; 100 ppm test compound): 100%
Insect mortality (%) ([3]; 200 ppm test compound): 67%

melting point: 102.5 to 103 °C
Compound: Cn1nc(C(F)(F)F)cc1OC1CCN(c2ccc(C(F)(F)F)cn2)CC1(C)C (centres unmarked) [1a-215, 3,3-dimethyl-4-[1-methyl-3-(trifluoromethyl)pyrazol-5-yloxy]-1-[5-(trifluoromethyl)-2-pyridyl]-piperidine]

Compound: Cc1ccc(-n2nc(C(F)(F)F)cc2OC2CCN(c3ccc(C(F)(F)F)cn3)CC2)nc1 [1a-247]
ovicidal rate of the two-spotted spider mites [1]: 100%

Compound: C[C@@H]1CN(c2ccc(C(F)(F)F)cn2)CC[C@H]1Oc1cc(-c2cc(F)cc(F)c2)nn1CC1OCCO1 (relative stereo) [1a-301, trans-4-[1-(1,3-dioxolan-2-yl)methyl-3-(3,5-difluorophenyl)pyrazol-5-yloxy]-3-methyl-1-[5-(trifluoromethyl)-2-pyridyl]-piperidine]
mortality at 100 ppm [4]: 100%
mortality at 100 ppm [5]: 100%

melting point: 161.8 to 162.4 °C
Compound: Cn1nc(-c2cc(Cl)cc(Cl)c2)cc1OC1CCN(c2ccc(C(F)(F)F)cn2)CC1 [1a-107, 4-[3-(3,5-dichlorophenyl)-1-methylpyrazol-5-yloxy]-1-[5-(trifluoromethyl)-2-pyridyl]-piperidine]

Compound: CCCCn1nc(-c2ccc(F)cc2)cc1OC1CCN(c2ccc(C(F)(F)F)cn2)CC1 [1a-236]
ovicidal rate of the two-spotted spider mites [1]: 100%

Compound: CCCCn1nc(C(F)(F)F)cc1OC1CCN(c2ccc(C(F)(F)F)cn2)CC1 [1a-17, 4-[1-butyl-3-(trifluoromethyl)pyrazol-5-yloxy]-1-[5-(trifluoromethyl)-2-pyridyl]-piperidine]
mortality at 100 ppm [4]: 100%

Compound: CCOC(=O)n1nc(C(F)(F)F)cc1OC1CCN(c2ccc(C(F)(F)F)cn2)CC1 [1a-288, 4-[1-ethoxycarbonyl-3-(trifluoromethyl)pyrazol-5-yloxy]-1-[5-(trifluoromethyl)-2-pyridyl]-piperidine]
mortality at 500 ppm [2]: ≥ 50%

melting point: 105.3 to 105.6 °C
Compound: CCCCn1nc(C(F)(F)F)cc1S(=O)(=O)C1CCN(c2ccc(C(F)(F)F)cn2)CC1 [1a-218, 4-[1-butyl-3-(trifluoromethyl)pyrazol-5-ylsulfonyl]-1-[5-(trifluoromethyl)-2-pyridyl]-piperidine]

Compound: FC(F)(F)c1ccc(N2CCC(Oc3cc(C(F)(F)F)nn3-c3cccc(Cl)c3)CC2)nc1 [1a-62, 4-[1-(3-chlorophenyl)-3-(trifluoromethyl)pyrazol-5-yloxy]-1-[5-(trifluoromethyl)-2-pyridyl]-piperidine]
mortality at 100 ppm [5]: 100%

Compound: CCCCn1nc(-c2cc(Cl)ncc2Cl)cc1OC1CCN(c2ccc(C(F)(F)F)cn2)CC1 [1a-249]
ovicidal rate of the two-spotted spider mites [1]: 100%

From patent US7994094B2, “N-pyridylpiperidine compound, method for producing the same, and pest control agent” (Otsuka Agritechno Co., Ltd., priority 2006, dated 2011)
